The target in the experiment is PDE10A (UniProt Q9Y233). In words: PDE10 enzyme inhibition, IMAP TR-FRET assay (Example A, MPDE10A7 Enzyme Activity and Inhibition). In kind it is biochemical. The following applies: approximate IC50 value, Table 10. In outline:
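Compounds were preincubated 60 min at room temperature with PDE10A enzyme or tissue homogenate, then fluorescein-labeled cAMP or cGMP was added for 90 min. After stopping with IMAP binding reagents, TR-FRET was read and IC50s were fitted with a four-parameter logistic equation.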
For orientation: TR-FRET usually uses a lanthanide donor and a delayed reading to cut background.

For the molecule `O=c1[nH]c2cccnc2n1[C@H]1C[C@@H](Nc2nc3ccccc3s2)C1` [Example 103, 3-(cis-3-(benzo[d]thiazol-2-ylamino)cyclobutyl)-1H-imidazo[4,5-b]pyridin-2(3H)-one], half-maximal inhibition (IC50) required 26.6 nM.

In turn, `O=c1[nH]c2cccnc2n1[C@H]1CC[C@H](Nc2nc3ccccc3s2)CC1` [Example 104] showed a concentration for half-maximal inhibition (IC50) of 31.4 nM.

The molecule `COc1ccc2ccc(N[C@H]3C[C@H](n4c(=O)[nH]c5cccnc54)C3)nc2c1` [Example 105, 3-(trans-3-((7-methoxyquinolin-2-yl)amino)cyclobutyl)-1H-imidazo[4,5-b]pyridin-2(3H)-one] displayed an IC50 of 35.5 nM.

In the case of `Cn1c(=O)n([C@H]2C[C@@H](N(C)c3nc4ccccc4s3)C2)c2ncccc21` [Example 106, 3-(cis-3-(benzo[d]thiazol-2-yl(methyl)amino)cyclobutyl)-1-methyl-1H-imidazo[4,5-b]pyridin-2(3H)-one], the IC50 amounted to 43.1 nM.

Take `O=c1[nH]c2cccnc2n1[C@H]1CC[C@H](Nc2nc3cc(F)ccc3s2)CC1` [Example 107, 3-(trans-4-((5-fluorobenzo[d]thiazol-2-yl)amino)cyclohexyl)-1H-imidazo[4,5-b]pyridin-2(3H)-one]: the IC50 turned out to be 152 nM.

Molecule `O=c1[nH]c2cccnc2n1[C@H]1CC[C@H](Nc2ccc3ccccc3n2)CC1` [Example 108, 3-(trans-4-(quinolin-2-ylamino)cyclohexyl)-1H-imidazo[4,5-b]pyridin-2(3H)-one] gave an IC50 of 266 nM.

As to `O=c1[nH]c2cccnc2n1[C@H]1C[C@H](Nc2ncc3ccc(F)cc3n2)C1` [Example 109, 3-(trans-3-((7-fluoroquinazolin-2-yl)amino)cyclobutyl)-1H-imidazo[4,5-b]pyridin-2(3H)-one], the IC50 is 339 nM.

With `O=c1[nH]c2cccnc2n1[C@H]1CC[C@H](Nc2ncc3ccccc3n2)CC1` [Example 110, 3-(trans-4-(quinazolin-2-ylamino)cyclohexyl)-1H-imidazo[4,5-b]pyridin-2(3H)-one], the 50% inhibitory concentration (IC50) amounted to 461 nM.

As for `O=c1[nH]c2cccnc2n1[C@H]1CC[C@H](Nc2ccc3ccc(F)cc3n2)CC1` [Example 111, 3-(trans-4-((7-fluoroquinolin-2-yl)amino)cyclohexyl)-1H-imidazo[4,5-b]pyridin-2(3H)-one], the concentration for half-maximal inhibition (IC50) stood at 1770 nM.

The molecule `O=c1[nH]c2cccnc2n1[C@H]1CC[C@H](Nc2ncc3ccc(Cl)cc3n2)CC1` [Example 112, 3-(trans-4-((7-chloroquinazolin-2-yl)amino)cyclohexyl)-1H-imidazo[4,5-b]pyridin-2(3H)-one] registered an IC50 greater than 10 nM.

As for `Nc1nn([C@H]2C[C@H](Nc3nc4ccccc4s3)C2)c2ncccc12` [Example 113, N-(trans-3-(3-amino-1H-pyrazolo[3,4-b]pyridin-1-yl)cyclobutyl)benzo[d]thiazol-2-amine], inhibition was half-maximal at 77.1 nM (IC50).

Molecule `c1ccc2sc(N[C@H]3C[C@H](n4nc(C5CC5)c5cccnc54)C3)nc2c1` [Example 114, N-(trans-3-(3-cyclopropyl-1H-pyrazolo[3,4-b]pyridin-1-yl)cyclobutyl)benzo[d]thiazol-2-amine] came in with a half-inhibitory concentration (IC50) of 0.152 nM.

In turn, `FC(F)(F)c1nn([C@H]2C[C@H](Nc3nc4ccccc4s3)C2)c2ncccc12` [Example 115, N-(trans-3-(3-(trifluoromethyl)-1H-pyrazolo[3,4-b]pyridin-1-yl)cyclobutyl)benzo[d]thiazol-2-amine] gave an IC50 of 1.7 nM.

Molecule `CC(=O)N1CCC(Nc2nn([C@H]3C[C@H](Nc4nc5ccccc5s4)C3)c3ncccc23)CC1` [Example 116, 1-(4-((1-(trans-3-(benzo[d]thiazol-2-ylamino)cyclobutyl)-1H-pyrazolo[3,4-b]pyridin-3-yl)amino)piperidin-1-yl)ethanone] returned a half-inhibitory concentration (IC50) of 3.38 nM.

In turn, `O=C(c1nc2ccccc2[nH]1)N1CC(n2c(=O)[nH]c3cccnc32)C1` [Example 117, 3-(1-(1H-benzo[d]imidazole-2-carbonyl)azetidin-3-yl)-1H-imidazo[4,5-b]pyridin-2(3H)-one] returned an IC50 of 3.26 nM.

As for `O=C(c1nc2ccccc2s1)N1CC(N2C(=O)C3(CC3)c3cccnc32)C1` [Example 118, 1′-(1-(benzo[d]thiazole-2-carbonyl)azetidin-3-yl)spiro[cyclopropane-1,3′-pyrrolo[2,3-b]pyridin-]-2′(1′H)-one], the IC50 came to 1.69 nM.

Molecule `CC1(C)C(=O)N(C2CCN(C(=O)c3ccccn3)CC2)c2ncccc21` [Example 119, 3,3-dimethyl-1-(1-picolinoylpiperidin-4-yl)-1H-pyrrolo[2,3-b]pyridin-2(3H)-one] returned an IC50 of 8.85 nM.

`CC1(C)C(=O)N(C2CCN(c3ccccn3)CC2)c2ncccc21` [Example 120, 3,3-dimethyl-1-(1-(pyridin-2-yl)piperidin-4-yl)-1H-pyrrolo[2,3-b]pyridin-2(3H)-one] displayed a concentration for half-maximal inhibition (IC50) of 0.315 nM.

`Cc1ccc(N2CCC(N3C(=O)C(C)(C)c4cccnc43)CC2)nc1` [Example 121, 3,3-dimethyl-1-(1-(5-methylpyridin-2-yl)piperidin-4-yl)-1H-pyrrolo[2,3-b]pyridin-2(3H)-one] returned an IC50 of 0.049 nM.

On to `COc1nc2cccnc2n1C1CCN(C(=O)c2nc3ccccc3[nH]2)CC1` [Example 122, (1H-benzo[d]imidazol-2-yl)(4-(2-methoxy-3H-imidazo[4,5-b]pyridine-3-yl)piperidin-1-yl)methanone], for which the concentration for half-maximal inhibition (IC50) stood at 1.13 nM.

The molecule `COc1nc2cccnc2n1C1CCN(c2nc3ccccc3s2)CC1` [Example 123, 2-(4-(2-methoxy-3H-imidazo[4,5-b]pyridine-3-yl)piperidin-1-yl)benzo[d]thiazole] gave an IC50 of 2.24 nM.

In turn, `COc1nc2cccnc2n1C1CCN(C(=O)c2nc3ccccc3s2)CC1` [Example 124, Benzo[d]thiazol-2-yl(4-(2-methoxy-3H-imidazo[4,5-b]pyridine-3-yl)piperidin-1-yl)methanone] showed a half-inhibitory concentration (IC50) of 2.64 nM.

`COc1nc2cccnc2n1C1CCN(c2nc3ccccc3[nH]2)CC1` [Example 125, 3-(1-(1-H-Benzo[d]imidazol-2-yl)piperidin-4-yl)-2-methoxy-3H-imidazo[4,5-b]pyridine] gave an IC50 of 3.79 nM.

The molecule `COc1nc2cccnc2n1C1CN(c2ccc3ccccc3n2)C1` [Example 126, 2-(3-(2-methoxy-3H-imidazo[4,5-b]pyridin-3-yl)azetidin-1-yl)quinoline] came in with a half-inhibitory concentration (IC50) of 0.13 nM.

The molecule `COc1nc2cccnc2n1C1CN(c2nccc(C)n2)C1` [Example 127, 2-Methoxy-3-(1-(4-methylpyrimidin-2-yl)azetidin-3-yl)-3H-imidazo[4,5-b]pyridine] had a half-inhibitory concentration (IC50) of 4.77 nM.

In turn, `COc1nc2cccnc2n1C1CN(c2ncc(C)cn2)C1` [Example 128, 2-Methoxy-3-(1-(5-methylpyrimidin-2-yl)azetidin-3-yl)-3H-imidazo[4,5-b]pyridine] had a half-maximal inhibitory concentration (IC50) of 23 nM.

In the case of `COc1nc2cccnc2n1C1CN(c2ncc3ccccc3n2)C1` [Example 129, 2-(3-(2-Methoxy-3H-imidazo[4,5-b]pyridin-3-yl)azetidin-1-yl)quinazoline], inhibition was half-maximal at 1.13 nM (IC50).

`COc1nc2cccnc2n1C1CN(c2nccc(-c3ccc(C)nc3)n2)C1` [Example 130, 2-Methoxy-3-(1-(4-(6-methylpyridin-3-yl)pyrimidin-2-yl)azetidin-3-yl)-3H-imidazo[4,5-b]pyridine] had a 50% inhibitory concentration (IC50) of 2.84 nM.

For orientation: IC50 means the concentration that gives 50% inhibition. A lower IC50 goes with greater potency.

The values above are taken from patent publication US9174992B2, “Heterobicyclic compounds” (Amgen Inc., priority 2012, dated 2015).
